Here are results for three compounds from US20080269202A1, “Novel 2,3-benzodiazepine derivatives and their use as antipsychotic agents” (Teva Pharmaceutical Industries Ltd., priority 2007, published 2008).

Where two headings read alike, the source gives them in different places.

The subject of data set [1] is DOPA accumulation in eminentia mediana. The data set can be described thus: DOPA accumulation in eminentia mediana after NSD-1015. Type of data set: in vivo, Sprague-Dawley rats. The settings on record: for DOPA levels (pmol/mg prot): rat eminentia mediana, mean ± SEM. On the procedure: Acute administration of atypical antipsychotics results in enhanced accumulation of dihydroxyphenylalanine (DOPA) in the […] after the inhibition of DOPA decarboxylase. In contrast, DOPA accumulation is not altered by the typical antipsychotics (Andersson, G, Albinsson, A, Pettersson, G, Arzneimittelforschung. 1990, 40, 237; Gudelsky, G. A., Meltzer, H. Y. Neuropsychopharmacology, 1989, 2, 45). The effect of the compound of Example 121 on DOPA-accumulation was measured by analyzing the levels of DOPA in […]. […] (EM), were dissected out from the brains on ice-cold plates and kept at -70° C. until they were assayed for DOPA by HPL-EC. Statistical analysis was carried out using one-way ANOVA followed by Duncan test.

The test system of data set [2] is apomorphine-induced climbing. The experiment in a line: apomorphine-induced climbing test in mice. In kind it is in vivo, CD1 mice. The following applies: for ED50: Mus musculus, read-out: Climbing ED50 (mg/kg ip.). As to the method: (§1) Anti-apomorphine effects were investigated in the climbing test in mice mediated through the mesolimbic and stereotypy test in rats mediated through the nigrostriatal system. Conventional antipsychotics antagonize both apomorphine-induced behaviours, while known atypical antipsychotics are weaker against apomorphine stereotypy.
The climbing test was carried out according to Protais et al. (Protais, P. et al. Psychopharmacologia, 1976, 50, 1.) Stereotyped behavior was induced in food deprived (for 16 hours) male CD1 mice weighing 20-25 g body by apomorphine HCl (SIGMA) in a s.c. dose of 2 mg/kg. Mice were placed individually into cylinders having 12 cm diameter and consisting of vertical bars of 2 mm diameter where apomorphine treated animals tended to adopt a vertical position in contrary to vehicle treated controls. Test substances were applied ip. 30 min before apomorphine.
10 and 20 min after apomorphine treatment the climbing behaviour was evaluated by scores of 0-2. 10 mice/group were used. The scores of the two readings were summed individually, meaned and compared to the control. The ED50 values were calculated by Litchfield-Wilcoxon's method (Litchfield Jr. J. T., Wilcoxon, F. J. Pharmacol. Exp. Ther. 1949, 96, 49,).

Data set [3] concerns PCP-induced hypermotility. The data set can be described thus: PCP-induced hypermotility (motor activity meter) in mice. Type of data set: in vivo. The settings on record: Mus musculus, read-out: PCP-hypermotility ED50 mg/kg po. From the text: (§2) Alterations in the mesocortical dopaminergic tract are thought to be responsible for the negative symptoms of schizophrenia (flattening of affect, poverty of speech, lack of volition and drive, loss of feeling, social withdrawal and decreased spontaneous movement). The best animal model of these symptoms is the behavioral changes induced by PCP (phencyclidine). The PCP-induced stereotypy and hypermotility was investigated in mice according to Ljungberg and Ungerstedt (Ljungberg, T., Ungerstedt, U. Pharmacol. Biochem. Behav., 1985, 23, 479,) and Jawitt (Jawitt, D. C. Amer. J. Psychiatry, 1991, 145, 1301). The stereotypy experiments were carried out in male CD1 mice weighing 20-25 g. The animals were starved for 16 hours before treatment without limitation of water availability. In the stereotypy studies, 30 min before treatment, mice were individually placed into small, transparent acrylic cages for habituation. Test substances were administered orally in a volume of 0.1 ml/10 g. 30 min later mice were treated with PCP with an intraperitoneal dose of 7 mg/kg. Stereotyped behavior was observed every 5th min for 60 min and scored from 0 to 4. The scores were summed individually, averaged and compared to the control group.
The motor activity was measured in a 4-channel activity meter. The apparatus consisted of acrylic cages (40×40×32 cm) equipped with 16 pairs of infrared photocells. The photocells' beam, when broken, signaled a count, which was then recorded by a computer. A 5 mg/kg intraperitoneal dose of PCP was administered 5 min before the experiment. This dose of PCP induces 110-120% increase of the spontaneous motor activity. Test substances were administered orally 15 min before experiment, and mice were investigated individually in the experimental cages for 60 min. 10 mice/group were used. The total counts for each experimental group were compared to the vehicle treated control group.
(§3) In both studies the ED50 values were calculated by the Litchfield-Wilcoxon's method (J. Pharmacol. Exp. Ther. 1949, 96, 49).

Data set [4] concerns apomorphine-induced stereotyped behavior. The data set can be described thus: apomorphine-induced stereotypy. Type of data set: in vivo, CD1 mice. The settings on record: for ED50: Mus musculus, read-out: Stereotypy ED50 (mg/kg po.).
Excerpt: as §1
Apomorphine-induced stereotypy was investigated according to Costall and Naylor (B. Costall and R. J. Naylor, Eur. J. Pharmacol. 1972, 18, 95) in male CD1 mice of 20-25 g body weight after 16 hours deprivation of food. 30 min before treatment mice were individually placed into small, transparent acrylic cages for habituation. Test substances were administered orally in a volume of 0.1 ml/10 g. 30 min later mice were treated with apomorphine HCl (SIGMA) in a subcutaneous dose of 2 mg/kg. […] The scores were summed individually, meaned and compared to the control group. The ED50 values were calculated by Litchfield-Wilcoxon's method (J. Pharmacol. Exp. Ther. 1949, 96, 49,).

The subject of another data set is catalepsy. The experiment in a line: catalepsy test in rats. The settings on record: for Catalapsy scores: dose 10 mg/kg ip, sum of 8 readings over 4 hours; for cataleptogenic potential: intraperitoneal, result in words. Type of data set: in vivo, CDBR rats. From the text:
In order to investigate the potential side effect profile, the catalepsy test in rats has been carried out according to Costall and Naylor (Costall, B., Naylor, R. J. Arzneimittelforschung/Drug Res., 1973, 23, 674).
Catalepsy is defined as a failure to correct an externally imposed, unusual posture over a prolonged time. Neuroleptics which have direct inhibitory action on the nigrostriatal dopamine system induce catalepsy. It may be reflected by the Parkinson-like extrapyramidal symptoms seen clinically with administration of classical antipsychotics. The experiments were carried out in male CDBR rats weighing 300-400 g. The volume of administration was 0.25 ml/100 g body weight. The animals were starved for 16 hours before treatment, water was delivered ad libitum. After intraperitoneal administration of the test substances, the forepaws of the rats were placed on a horizontal stainless steel bar elevated to 10 cm high, while the hind paws remained on a metal plate. The semi-automatic 5-channel catalepsy meter measured the time spent in this unusual posture by an electronic stop-clock. The catalepsy time was scored from 0 to 5 according to the time spent in the unusual posture. […] Means of groups were calculated.

For data set [5], the system named is conditioned avoidance responses. The data set can be described thus: conditioned avoidance: pole jumping test in rats. Type of data set: in vivo, Long-Evans rats. From the text: For measuring the antipsychotic potential in a non-perturbed dopamine system the pole jumping assay was used (Cook, L., Catania, A. C. Fed. Proc. 1964, 23, 818.)
This method is an active avoidance learning test. Long-Evans rats, weighing 250-450 g, were used in the experiments. Rats are placed in a box (25×25×25 cm) on a grid floor in the center of which there is a pole. After a latency period, light is turned on for a given time then the floor is electrified to deliver an unpleasant footshock. Rats may learn to avoid the shock by jumping up to grasp the pole. As soon as the rat jumps up the light and shock are turned off. Each light-on period lasted for 15 s, shock time for 30 s with an intertrial interval of 15 s. 30 such trials per day were repeated during the learning period until animals reach a minimum of 80% avoidance rate. During the experimental sessions 20 trials/day were run. Test substances were administered ip. in a volume of 0.25 ml/100 g body weight. Significances were calculated by Student's t test.

A further data set deals with PCP-induced stereotypy. The experiment in a line: PCP-induced stereotypy in mice. The settings on record: Mus musculus, read-out: PCP-stereotypy ED50 mg/kg po. Type of data set: in vivo, CD1 mice.
Excerpt: as §2, §3

The test system of data set [6] is PCP-induced disruption of PPI. The experiment in a line: PCP-induced disruption of pre-pulse inhibition (PPI). The following applies: for reversal of PCP-induced disruption of PPI: PCP 8 mg/kg, C57B1/6J mice.
Excerpt: Male C57B1/6J mice from Jackson Laboratories (Bar Harbor, Me.) were used in this study. Mice were received at 6-weeks of age. Upon receipt, mice were assigned unique identification numbers (tail marked) and were group housed in OPTImice cages. All animals remained housed in groups of four during the remainder of the study. […] During the period of acclimation, mice were examined on a regular basis, handled, and weighed to assure adequate health and suitability. Mice were maintained on a 12/12 light/dark cycle with the light on at 6:00 a.m. The room temperature was maintained between 20 and 23° C. with a relative humidity maintained between 30% and 70%. Food and water were provided ad libitum for the duration of the study. In each test, animals were randomly assigned across treatment groups.
All compounds were injected i.p. at a dose volume of 10 ml/kg. […] Phenylcyclohexylpiperidine (PCP) (8 mg/kg) was dissolved in sterile water.
The acoustic startle measured an unconditioned reflex response to external auditory stimulation. […] Mice were placed in the PPI chambers (Med Associates) for a 5 min session of white noise (70 dB) habituation.
After the acclimation period the test session was automatically started. The session started with a habituation block of 6 presentations of the startle stimulus alone, followed by 10 PPI blocks of 6 different types of trials. Trial types are: null (no stimuli), startle (120 dB), startle plus prepulse (4, 8 and 12 dB over background noise i.e. 74, 78 or 82 dB) and prepulse alone (82 dB). Trial types were presented at random within each block.
Each trial started with a 50 ms null period during which baseline movements were recorded. There was a subsequent 20 ms period during which prepulse stimuli were presented and responses to the prepulse measured. After further 100 ms the startle stimuli were presented for 40 ms and responses recorded for 100 ms from startle onset. Responses were sampled every ms. The inter-trial interval was variable with an average of 15 s (range from 10 to 20 s). In startle alone trials the basic auditory startle was measured and in prepulse plus startle trials the amount of inhibition of the normal startle was determined and expressed as a percentage of the basic startle response (from startle alone trials), excluding the startle response of the first habituation block.
Data were analyzed by analysis of variance (ANOVA) followed by post-hoc comparisons with Fisher Tests when appropriate. An effect was considered significant if p<0.05. Data are represented as the mean and standard error to the mean.
Another data set has as its system PCP-induced locomotion. The data set can be described thus: PCP induced locomotor activity test (open field). The following applies: all doses (3, 7, 14, 28, 40 mg/kg) by gavage, PCP 5 mg/kg, vs vehicle. Type of data set: in vivo, mice. On the procedure: The effects of compounds 121 and 183, administered orally, were also evaluated in the PCP induced locomotor activity test. Compound 121 was designated as “Compound A” and Compound 183 was designated as “Compound B” for purposes of this study. In general, the study aimed to test Compounds A and B for potential antipsychotic activity in PCP treated mice.
Compounds A & B were dissolved in 3% Tween: Compound A: 1, 3, 6, 10, and 15 mg/kg; Compound B: 3, 7, 14, 28, and 40 mg/kg; Compounds A+B were administered by gavage.
PCP (5 mg/kg) was dissolved in sterile injectable water.
The open field (“OF”) test assessed both anxiety and locomotor behavior. The open field chambers are Plexiglas square chambers (27.3×27.3×20.3 cm; Med Associates Inc., St Albans, Vt.) surrounded by infrared photobeams (16×16×16) to measure horizontal and vertical activity. The analysis was configured to divide the open field into a center and periphery zone. Distance traveled was measured from horizontal beam breaks as the mouse moved whereas rearing activity was measured from vertical beam breaks.
Mice were brought to the activity experimental room for at least 1 hr acclimation to the experimental room conditions prior to testing. […]
Data was analyzed to show baseline activity (activity during the 30 min prior to PCP injection) and PCP-induced activity (activity during the 60 min after PCP injection).

Where [7] appears, read: mice, ip. 30 min before apomorphine 2 mg/kg s.c.

On to `CN(C)CCCN1c2ccccc2Sc2ccc(Cl)cc21` [Chlorpromazine, reference compound], for which the “DOPA levels (pmol/mg prot)” value in data set [1] (10 mg/kg ip, NSD-1015 90 min after treatment) amounted to 56.4 ± 4.1 pmol/mg prot. For the same compound, the “effect on levels of DOPA in the EM of rats” value in data set [1] (result in words, vs saline) was “had no effect”. For the same compound, the ED50 is 1.2 mg/kg in [2] (setting [7]); 1.86 mg/kg in data set [3] (mice, po. 15 min before experiment, PCP 5 mg/kg ip); 3.6 mg/kg in data set [4] (mice, po. 30 min before apomorphine 2 mg/kg s.c.). Besides, the “inhibition of apomorphine-induced climbing” value in [2] (mice, result in words) is on record as “inhibited both behaviors”. Besides, the “inhibition of apomorphine-induced stereotyped behavior” value in data set [4] (mice, result in words) is “inhibited both behaviors”. Besides, in the data set on catalepsy, the Catalapsy scores was 10:8.7. Also, the cataleptogenic potential entry with catalepsy is listed as “induces severe catalepsy”.
Take `CN1CCN(C2=Nc3cc(Cl)ccc3Nc3ccccc32)CC1` [Clozapine, reference compound]: in [1] (20 mg/kg ip), the “DOPA levels (pmol/mg prot)” value is on record as 87.4 ± 9.5 pmol/mg prot. For the same compound, in data set [5], the “MED (mg/kg ip), minimal effective dose (stat. sign.)” value came to 2 mg/kg. The ED50 was 2.64 mg/kg in data set [2], 1.81 mg/kg in [3], 22.9 mg/kg in data set [4] and 3.76 mg/kg in the data set with PCP-induced stereotypy. The Catalapsy scores with catalepsy is 10:0.14. Further, the cataleptogenic potential result in the data set on catalepsy is “lack cataleptogenic potential”.
Take `COc1cc2c(cc1OC)C(c1ccc(NC(C)=O)cc1)=NN(c1nccs1)[C@H](C)C2` [Example 183]: the melting point (as a rule, the temperature of the solid-liquid transition) lay in the range of 156 to 158 °C. Besides, the “sedation and lethargy in the mice” value in data set [6] (15 mg/kg i.p. (high dose)) was “caused sedation and lethargy”. Also, in data set [6] (5, 10, and 15 mg/kg i.p.), the “reversal of PCP-induced disruption of PPI” value is “significantly reversed”. Further, in [6] (all doses (1.5, 5, 10, 15 mg/kg) i.p.), the “reversal of PCP-induced disruption of PPI” value was “significantly reversed”. Moreover, in data set [2] (setting [7]), the ED50 was 8.7 mg/kg. The “effect on PCP induced locomotion” value with PCP-induced locomotion is “significantly decreased”.
